Where two headings read alike, the source gives them in different places. Numbered stars: 1 amine (or outer) side, 2 acyl side, 3 side chain; on linkers, the order of the positions; unused ones are H or OH. Bridge positions count the residues as written; N and C are the ends. Square brackets hold non-standard residues; d marks the D form. Peptide text beside a SMILES is read from it. * marks the point of attachment. C20 diacid = O=C(O)CCCCCCCCCCCCCCCCCCC(=O)*; γGlu = O=C(O)[C@H](CCC(=O)[*:2])N[*:1]; NMeI = CC[C@H](C)[C@H](NC)C(=O)O; Sar = CNCC(=O)O

Series [1] can be described thus: Solubility assessment (turbidity absorbance at 325 nm). It is filed as physicochemical. The conditions noted are these: stock 2 mg/ml diluted 1:1, ambient temperature (typically 25°C), n=1; for Solubility, Acetate buffer pH 4: 100 mM acetate buffer pH 4.0; for Solubility, Acetate buffer pH 5: 100 mM acetate buffer pH 5.0; for Solubility, Histidine buffer pH 6: 100 mM histidine buffer pH 6.0; for Solubility, Histidine buffer pH 7: 100 mM histidine buffer pH 7.0; for Solubility, Phosphate buffer pH 6: 100 mM phosphate buffer pH 6.0; for Solubility, Phosphate buffer pH 7: 100 mM phosphate buffer pH 7.0; for Solubility, Phosphate buffer pH 7.5: 100 mM phosphate buffer pH7.5. A digest of the protocol:
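Stock 2 mg/ml peptide, H2O/HCl pH 2.5; 1:1 into 100 mM buffers: acetate pH 4.0/5.0, His pH 6.0/7.0, phosphate pH 6.0/7.0/7.5. A280 + A325, ~25°C, n=1. Soluble ≥ 1 mg/ml if A325 ≤ 0.02.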

The target of series [2] is T1, human calcitonin receptor (hCTR2) (Homo sapiens, UniProt P30988).
T1 construct: expressed in transfected cells
T1 sequence (P30988 25-474): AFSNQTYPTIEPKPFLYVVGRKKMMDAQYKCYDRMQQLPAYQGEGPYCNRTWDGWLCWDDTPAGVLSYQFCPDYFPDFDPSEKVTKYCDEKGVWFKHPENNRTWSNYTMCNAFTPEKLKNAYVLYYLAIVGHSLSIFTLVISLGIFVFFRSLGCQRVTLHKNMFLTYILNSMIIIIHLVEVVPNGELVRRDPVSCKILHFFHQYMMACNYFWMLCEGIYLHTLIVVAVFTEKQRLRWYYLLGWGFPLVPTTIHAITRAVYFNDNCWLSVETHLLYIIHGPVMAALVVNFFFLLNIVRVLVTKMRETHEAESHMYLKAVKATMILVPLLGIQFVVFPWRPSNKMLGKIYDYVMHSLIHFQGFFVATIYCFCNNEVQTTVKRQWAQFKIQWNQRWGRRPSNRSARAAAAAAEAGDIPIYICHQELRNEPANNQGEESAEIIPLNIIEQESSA
In words: hCTR2 assay: induction of cAMP (AlphaScreen cAMP Assay kit) in COS7 cells expressing hCTR2. It is filed as cell-based. A digest of the protocol:
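Functional agonism is measured as cAMP accumulation in a COS7 line stably transfected with hCTR2, lacking endogenous RAMPs. Peptides act for 15 min at 37° C with IBMX present, and curves are fitted with a 4-parameter logistic model.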
On the technique in general: Alpha assays give light when donor and acceptor beads are brought close together.

The target in series [3] is T2, human amylin receptor 3 (hAMYR3) consisting of hCTR2 co-expressed with human Receptor Activity Modifying Protein 3 (hRAMP3) (Homo sapiens, UniProt O60896+P30988).
T2 construct: expressed in transfected cells
T2 sequence (P30988 25-474): T1 sequence (P30988 25-474)
T2 sequence (O60896 24-148 partner): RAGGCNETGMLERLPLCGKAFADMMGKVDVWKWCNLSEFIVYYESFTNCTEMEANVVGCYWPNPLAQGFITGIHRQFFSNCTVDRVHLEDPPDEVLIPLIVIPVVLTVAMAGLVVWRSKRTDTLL
Kind of series: hAMYR3 assay: induction of cAMP (AlphaScreen cAMP Assay kit) in COS7 cells expressing hAMYR3. It is filed as cell-based. The note with it: cAMP induction in COS7 cells expressing hAMYR3; average of a minimum of 3 determinations; read-out: hAMY R3 EC50. An outline of the steps:
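Stable COS7 clone co-expressing hCTR2 and hRAMP3, stimulated 15 min at 37° C with increasing peptide in Tyrode buffer pH 7.4 with 100 µM IBMX and 0.1% casein. cAMP measured by AlphaScreen after lysis; EC50 and % efficacy versus pramlintide from 4PL fit.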

What is called EC50 is the concentration at which the effect is half-maximal. `CC[C@H](C)[C@@H](C(=O)N[C@@H](CC(C)C)C(=O)N[C@@H](CO)C(=O)N[C@@H](CO)C(=O)N[C@H](C(=O)N[C@@H](CCC(=O)O)C(=O)N[C@H](C(=O)NCC(=O)N[C@@H](CO)C(=O)N[C@@H](CCC(=O)O)C(=O)N[C@H](C(=O)N1CCC[C@H]1C(N)=O)[C@@H](C)O)C(C)C)[C@@H](C)O)N(C)C(=O)[C@H](C)NC(=O)CN(C)C(=O)[C@H](Cc1ccccc1)NC(=O)[C@H](CO)NC(=O)[C@H](CO)NC(=O)[C@H](CO)NC(=O)[C@H](CO)NC(=O)[C@H](CCCNC(=N)N)NC(=O)[C@H](Cc1c[nH]cn1)NC(=O)[C@H](CC(C)C)NC(=O)[C@H](Cc1ccccc1)NC(=O)[C@H](CCC(=O)O)NC(=O)[C@H](C)NC(=O)[C@H](CC(C)C)NC(=O)[C@H](CCCNC(=N)N)NC(=O)[C@H](C)NC(=O)[C@@H](NC(=O)[C@H](C)NC(=O)[C@@H]1CSSC[C@H](NC(=O)[C@H](CCCNC(=N)N)NC(=O)CC[C@H](NC(=O)CCCCCCCCCCCCCCCCCCC(=O)O)C(=O)O)C(=O)N2CCC[C@H]2C(=O)N[C@@H]([C@@H](C)O)C(=O)N[C@@H](C)C(=O)N[C@@H]([C@@H](C)O)C(=O)N1)[C@@H](C)O` [Compound 147, [19CD]-isoGlu-RC()PTATC()ATARLAEFLHRSSSSF-Gly(Me)-A-Ile(Me)-LSSTEVGSETP-NH2] ({C20 diacid-γGlu}-RCPTATCATARLAEFLHRSSSSF[Sar]A[NMeI]LSSTEVGSETP-NH2; disulfide 2-7): in series [1], the “Solubility, Acetate buffer pH 4” value is “SS (SS indicates solubility ≥ 1mg/ml)”; the “Solubility, Acetate buffer pH 5” value was “II (II indicates solubility ≤ 1 mg/ml)”; the “Solubility, Histidine buffer pH 6” value is on record as “SS (SS indicates solubility ≥ 1mg/ml)”; the “Solubility, Histidine buffer pH 7” value is “SS (SS indicates solubility ≥ 1mg/ml)”. For the same compound, in series [1], the “Solubility, Phosphate buffer pH 6” value was “SS (SS indicates solubility ≥ 1mg/ml)”; the “Solubility, Phosphate buffer pH 7” value is reported as “SS (SS indicates solubility ≥ 1mg/ml)”; the “Solubility, Phosphate buffer pH 7.5” value was “SS (SS indicates solubility ≥ 1mg/ml)”. Moreover, the EC50 in series [2] was determined as 0.16 nM. Further, the EC50 in series [3] was determined as 0.16 nM.

For `CC[C@H](C)[C@@H](C(=O)N[C@@H](CC(C)C)C(=O)N[C@@H](CO)C(=O)N[C@@H](CO)C(=O)N[C@H](C(=O)N[C@@H](CCC(=O)O)C(=O)N[C@H](C(=O)NCC(=O)N[C@@H](CO)C(=O)N[C@@H](CCC(=O)O)C(=O)N[C@H](C(=O)N1CCC[C@H]1C(N)=O)[C@@H](C)O)C(C)C)[C@@H](C)O)N(C)C(=O)[C@H](C)NC(=O)CN(C)C(=O)[C@H](Cc1ccccc1)NC(=O)[C@H](CO)NC(=O)[C@H](CO)NC(=O)[C@H](CO)NC(=O)[C@H](CO)NC(=O)[C@H](CCCNC(=N)N)NC(=O)[C@H](Cc1c[nH]cn1)NC(=O)[C@H](CC(C)C)NC(=O)[C@H](Cc1ccccc1)NC(=O)[C@H](CCC(=O)O)NC(=O)[C@H](C)NC(=O)[C@H](CC(C)C)NC(=O)[C@H](CCCNC(=N)N)NC(=O)[C@H](CC(=O)O)NC(=O)[C@@H](NC(=O)[C@H](C)NC(=O)[C@@H]1CSSC[C@H](NC(=O)[C@H](CCCNC(=N)N)NC(=O)CC[C@H](NC(=O)CCCCCCCCCCCCCCCCCCC(=O)O)C(=O)O)C(=O)N[C@@H](CO)C(=O)N[C@@H]([C@@H](C)O)C(=O)N[C@@H](C)C(=O)N[C@@H]([C@@H](C)O)C(=O)N1)[C@@H](C)O` [Compound 148, [19CD]-isoGlu-RC()STATC()ATDRLAEFLHRSSSSF-Gly(Me)-A-Ile(Me)-LSSTEVGSETP-NH2] ({C20 diacid-γGlu}-RCSTATCATDRLAEFLHRSSSSF[Sar]A[NMeI]LSSTEVGSETP-NH2; disulfide 2-7), in series [1], the “Solubility, Acetate buffer pH 4” value is on record as “SS (SS indicates solubility ≥ 1mg/ml)”; the “Solubility, Acetate buffer pH 5” value is recorded as “SS (SS indicates solubility ≥ 1mg/ml)”; the “Solubility, Histidine buffer pH 6” value is given as “SS (SS indicates solubility ≥ 1mg/ml)”; the “Solubility, Histidine buffer pH 7” value is on record as “SS (SS indicates solubility ≥ 1mg/ml)”. Besides, in series [1], the “Solubility, Phosphate buffer pH 6” value is on record as “SS (SS indicates solubility ≥ 1mg/ml)”; the “Solubility, Phosphate buffer pH 7” value is reported as “SS (SS indicates solubility ≥ 1mg/ml)”; the “Solubility, Phosphate buffer pH 7.5” value is on record as “SS (SS indicates solubility ≥ 1mg/ml)”. For the same compound, the EC50 in series [2] (cAMP induction in COS7 cells expressing hCTR2, average of a minimum of 3 determinations, read-out: hCTR2 EC50) was found to be 0.14 nM. Further, in series [3], the EC50 worked out at 0.17 nM.
